From ChEMBL document CHEMBL1255340, “In vitro activities of the Rx-01 oxazolidinones against hospital and community pathogens” (2008)
Values after ≈ are worked out from the molar mass of the structure shown. Values joined by “and” are separate entries in the source; they are usually repeats but may differ in a detail not shown here. Equal entries are not always repeated.

Experiments:
Format in all cases: functional
[1] = tested on: Staphylococcus aureus; assay: Antimicrobial activity against methicillin-susceptible Staphylococcus aureus nosocomial isolate
[2] = tested on: Streptococcus pneumoniae; assay: Antimicrobial activity against Streptococcus pneumoniae PU1071099 harboring 65WR66 deletion in ribosomal protein L4 by broth microdilution method
[3] = tested on: Enterococcus faecalis; assay: Antimicrobial activity against vancomycin-resistant Enterococcus faecalis 03B1069
[4] = tested on: Streptococcus pneumoniae; assay: Antimicrobial activity against Streptococcus pneumoniae 02J1258
[5] = tested on: Streptococcus pneumoniae; assay: Antimicrobial activity against Streptococcus pneumoniae 02J1175
[6] = tested on: Enterococcus faecalis; assay: Antimicrobial activity against vancomycin-resistant Enterococcus faecalis nosocomial isolate
[7] = tested on: Enterococcus faecium; assay: Antimicrobial activity against vancomycin-resistant Enterococcus faecium nosocomial isolate
[8] = tested on: Staphylococcus hominis; assay: Antimicrobial activity against Staphylococcus hominis A7828
[9] = tested on: Staphylococcus capitis; assay: Antimicrobial activity against Staphylococcus capitis A8935
[10] = tested on: Enterococcus faecalis; assay: Antimicrobial activity against Enterococcus faecalis ATCC 29212
[11] = tested on: Enterococcus faecalis; assay: Antimicrobial activity against Enterococcus faecalis ATCC 29212-P5 harboring G2576U mutation in 23S rRNA
[12] = tested on: Enterococcus faecalis; assay: Antimicrobial activity against Enterococcus faecalis A6350
[13] = tested on: Enterococcus faecalis; assay: Antimicrobial activity against Enterococcus faecalis A5962
[14] = tested on: Enterococcus faecalis; assay: Antimicrobial activity against Enterococcus faecalis A7789
[15] = tested on: Enterococcus faecium; assay: Antimicrobial activity against vancomycin-susceptible Enterococcus faecium nosocomial isolate by broth microdilution method

Row | Compound | MIC [1] | MIC [2] [mg/L] | MIC [3] [mg/L] | MIC [4] [mg/L] | MIC [5] [mg/L] | MIC [6] [mg/L] | MIC ([7]; Enterococcus faecium, read-out: MIC) [mg/L] | MIC [8] [mg/L] | MIC [9] [mg/L] | MIC [10] [mg/L] | MIC [11] [mg/L] | MIC [12] [mg/L] | MIC [13] [mg/L] | MIC [14] [mg/L] | MIC [15] [mg/L] | MIC [7] [mg/L]
1 | CC[C@H]1OC(=O)[C@H](C)C(=O)[C@H](C)[C@@H](O[C@@H]2O[C@H](C)C[C@H](N(C)C)[C@H]2O)[C@](C)(OC)C[C@@H](C)C(=O)[C@H](C)[C@H]2N(CCCCn3cnc(-c4cccnc4)c3)C(=O)O[C@]12C [TELITHROMYCIN] | >=0.06 ug ml-1 and 0.125 ug ml-1 |  |  |  |  |  |  |  |  |  |  |  |  |  |  | 
2 | CN[C@H](CC(C)C)C(=O)N[C@H]1C(=O)N[C@@H](CC(N)=O)C(=O)N[C@H]2C(=O)N[C@H]3C(=O)N[C@H](C(=O)N[C@H](C(=O)O)c4cc(O)cc(O)c4-c4cc3ccc4O)[C@H](O)c3ccc(c(Cl)c3)Oc3cc2cc(c3O[C@@H]2O[C@H](CO)[C@@H](O)[C@H](O)[C@H]2O[C@H]2C[C@](C)(N)[C@H](O)[C@H](C)O2)Oc2ccc(cc2Cl)[C@H]1O [VANCOMYCIN] |  | ≤ 0.25 | 32 (≈ 22.1 µM) | 0.125 (≈ 0.0863 µM) | 0.25 (≈ 0.173 µM) | >16 | > 64 | 2 (≈ 1.38 µM) | 1 (≈ 0.69 µM) | 2 (≈ 1.38 µM) | 2 (≈ 1.38 µM) | 1 (≈ 0.69 µM) | 8 (≈ 5.52 µM) | 1 (≈ 0.69 µM) |  | 
3 | GENTAMICIN |  |  |  |  |  | > 128 |  |  |  |  |  |  |  |  | > 128 | > 128
